Results: the NIST ThermoML archive (doi:10.1016/j.fluid.2011.08.011)
Several values for one entry are separate records, joined by “and”; a condition that tells them apart may be missing. Identical values can stand only once.

What was measured:
[1] = Molar enthalpy of transition or fusion; conditions: Crystal; DSC
[2] = Solid-liquid equilibrium temperature; conditions: 101.3 kPa; Crystal; DTA
[3] = Liquid, Closed cell (Static) method
[4] = molar heat capacity at constant pressure; conditions: 101.33 kPa, Liquid, Small sample (50 mg) DSC

CC(C)(C)[O-].CC(C)(C)[O-].CC(C)(C)[O-].CC(C)(C)[O-].[Hf+4] [hafnium(IV) 2-methylpropan-2-olate]
Conditions	Molar enthalpy of transition or fusion [kcal/mol]	Solid-liquid equilibrium temperature
[1]	7.72	–
[2]	–	271.9 K and 271.8 K and 271.7 K

Conditions	molar heat capacity at constant pressure	vapor or sublimation pressure
[3], 280.65 K	–	0.00169 kPa and 0.00172 kPa and 0.00174 kPa
[3], 283.15 K	–	0.00214 kPa and 0.00217 kPa and 0.00219 kPa
[3], 285.65 K	–	0.00279 kPa and 0.00282 kPa and 0.00284 kPa
[3], 288.15 K	–	0.00362 kPa and 0.00364 kPa and 0.00361 kPa
[3], 290.65 K	–	0.00443 kPa and 0.00442 kPa and 0.00444 kPa
[3], 293.15 K	–	0.00563 kPa and 0.00565 kPa and 0.00564 kPa
[3], 295.65 K	–	0.00722 kPa and 0.0072 kPa
[3], 298.15 K	–	0.00874 kPa and 0.00873 kPa
[3], 300.65 K	–	0.01111 kPa and 0.01107 kPa and 0.01104 kPa
[3], 303.15 K	–	0.01348 kPa and 0.01346 kPa
[3], 305.67 K	–	0.01669 kPa and 0.01664 kPa and 0.0166 kPa
[3], 308.17 K	–	0.02071 kPa and 0.02061 kPa and 0.02059 kPa
[4], 293.83 K	596.3 J/K/mol and 598.5 J/K/mol	–
[4], 298.94 K	598.9 J/K/mol and 598.2 J/K/mol	–
[4], 304.04 K	601.3 J/K/mol and 601.8 J/K/mol	–
[4], 309.15 K	604.8 J/K/mol and 600.7 J/K/mol	–
[4], 314.25 K	604.8 J/K/mol and 602.9 J/K/mol	–
[4], 319.35 K	612.6 J/K/mol and 614.6 J/K/mol	–
[4], 324.46 K	614.2 J/K/mol and 613.8 J/K/mol	–
[4], 329.56 K	616.6 J/K/mol and 621.7 J/K/mol	–
[4], 334.66 K	626.3 J/K/mol and 625.9 J/K/mol	–
[4], 339.77 K	631.5 J/K/mol and 628.5 J/K/mol	–
[4], 344.88 K	635.3 J/K/mol and 638.1 J/K/mol	–
[4], 349.98 K	635.5 J/K/mol and 635.9 J/K/mol	–
